Where a name gives a salt, the structure may show the parent alone. Read-outs that look alike come from different tables or passages of the source.
Columns and labels:
5-HT2 = molecular target: T1, 5-HT2 (Rattus norvegicus, UniProt P14842); assay: 5-HT2 antagonism (inhibition of 5-hydroxytryptamine hypertensive response, anesthetized rats); assay type: in vivo, rats (male Sprague-Dawley); details: iv, cumulative doses, 5-hydroxytryptamine 100 μg/kg i.v., rats pretreated with d-tubocurarine and prazosin, read-out: ID50, dose inhibiting the hypertensive response by 50%
T1 construct: from tissue; host or cells: whole anesthetized male Sprague-Dawley rat; vasculature (blood pressure response)
Description: Male Sprague-Dawley rats (350-400 g) are anesthetized i.p. with pentobarbital (45 mg/kg). The trachea is cannulated and the animals are subjected to artificial respiration. The vagus nerves are sectioned. A catheter is placed in a carotid artery to record the arterial blood pressure. A second catheter is placed in the vein of the penis and is used for the injections. The animals' temperature is taken and is maintained at 37° C. The rats are pretreated with d-tubocurarine (1 mg/kg i.v.) and prazosin (1 mg/kg i.v.). 5-Hydroxytryptamine is injected i.v. at a dose of 100 μg/kg twice, separated by an interval of 10 minutes, so as to determine the rise in the systolic arterial blood pressure of each rat. 10 minutes later, the compounds of the invention are injected at the lowest dose and injection of 5-hydroxytryptamine is performed again 10 minutes later. 3 or 4 cumulative doses of the compounds of the invention are tested in the same manner. The percentages of the hypertensive response which are obtained at the different doses are calculated in order to determine the ID50, the dose inhibiting the hypertensive response by 50%.

α1 = α1 antagonism (inhibition of phenylephrine hypertensive response, pithed rats); assay type: in vivo, rats (male Sprague-Dawley); details: cumulative doses, phenylephrine 4 g/kg i.v., Tertatolol 100 μg/kg i.v. pretreatment
Text: α1 antagonism Male Sprague-Dawley rats (300-400 g) which have been subjected to a water diet are anesthetized with ethyl ether. A cannula is placed in the trachea. The spinal cord is destroyed by means of a steel rod and artificial respiration is instituted at once. The vagus nerves are sectioned. The carotid arteries are ligated and a catheter is placed in one of them to record the arterial blood pressure. A second catheter is placed in the vein of the penis and is used for the injections. The animals' temperature is taken and is maintained at 36° C. The rats are pretreated with a β-blocker (Tertatolol 100 μg/kg i.v.). Phenylephrine is injected at a dose of […] i.v. Two identical injections are performed, separated by an interval of 10 minutes. The compounds of the invention are injected at the lowest dose and injection of phenylephrine is performed again 10 minutes later. 3 or 4 cumulative doses of the compounds of the invention are tested in the same manner. The values for the percentage inhibition of the hypertensive response which are obtained at the different doses are calculated in order to determine the ID50.

5-hydroxytryptophan = assay: 5-HTP antagonism (symptoms induced by 5-hydroxytryptophan); assay type: in vivo, rats (female Wistar); details: Rattus norvegicus
Description: The animals are then placed under observation in transparent cages. Three parameters are assessed in the study: "forepaw treading", "flat body posture" and "head twitches". "Forepaw treading" corresponds to a pedaling motion of the forelimbs. This parameter is measured 80 minutes after the administration of […] and during a 10-minute observation period. […] This parameter is assessed throughout the period of observation of the animals.

[1] = ip, 80 min, compounds intraperitoneally, 5-hydroxytryptophan 320 mg/kg by gavage, scored at 80 minutes, read-out: ED50 FPT (forepaw treading)
[2] = ip, 1.5 h, read-out: ED50 HT (head twitches)
[3] = ip, compounds intraperitoneally, 5-hydroxytryptophan 320 mg/kg by gavage, read-out: ED50 FBP (flat body posture)
[4] = po, 80 min, compounds orally, 5-hydroxytryptophan 320 mg/kg by gavage, scored at 80 minutes, read-out: ED50 FPT (forepaw treading)
[5] = po, 1.5 h, read-out: ED50 HT (head twitches)
[6] = po, compounds orally, 5-hydroxytryptophan 320 mg/kg by gavage, read-out: ED50 FBP (flat body posture)
[7] = sc, 80 min, compounds subcutaneously, 5-hydroxytryptophan 320 mg/kg by gavage, scored at 80 minutes, read-out: ED50 FPT (forepaw treading)
[8] = sc, 1.5 h, read-out: ED50 HT (head twitches)
[9] = sc, compounds subcutaneously, 5-hydroxytryptophan 320 mg/kg by gavage, read-out: ED50 FBP (flat body posture)

T1 sequence (P14842 whole entry): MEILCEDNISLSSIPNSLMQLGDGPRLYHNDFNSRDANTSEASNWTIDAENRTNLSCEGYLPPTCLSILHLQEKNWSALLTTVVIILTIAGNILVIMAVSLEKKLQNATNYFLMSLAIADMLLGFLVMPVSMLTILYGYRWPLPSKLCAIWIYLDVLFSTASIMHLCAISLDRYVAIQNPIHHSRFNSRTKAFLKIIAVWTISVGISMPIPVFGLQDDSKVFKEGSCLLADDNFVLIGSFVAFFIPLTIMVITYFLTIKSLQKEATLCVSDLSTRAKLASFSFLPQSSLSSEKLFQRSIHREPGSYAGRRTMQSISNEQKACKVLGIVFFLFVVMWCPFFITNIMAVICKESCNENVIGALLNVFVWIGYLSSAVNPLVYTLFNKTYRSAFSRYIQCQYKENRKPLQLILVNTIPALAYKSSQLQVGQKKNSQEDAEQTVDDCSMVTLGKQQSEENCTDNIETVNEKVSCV

In the case of `Cc1nc2c(C(N)=O)ncn2c(O)c1CCN1CCC(=C(c2ccc(F)cc2)c2ccc(F)cc2)CC1.Cl` [EXAMPLE 1, 3-{2-[4-[bis(4-fluorophenyl)methylene]piperidino]ethyl}-8-carbamoyl-4-hydroxy-2-methylimidazo [1,5-a]pyrimidine hydrochloride], the ED50 (5-HT2) was 0.013 mg/kg, the “ID50, inhibition of the hypertensive response to phenylephrine” value (from here on “ID50, inhibition”) (α1) was greater than 5 mg/kg and the ED50 (5-hydroxytryptophan; [1]) was 2.5 mg/kg. It also gave an ED50 (5-hydroxytryptophan; [2]) of 0.63 mg/kg, an ED50 (5-hydroxytryptophan; [3]) of 0.08 mg/kg and an ED50 (5-hydroxytryptophan; [4]) of 10 mg/kg. The ED50 (5-hydroxytryptophan; [5]) was greater than 10 mg/kg and the ED50 (5-hydroxytryptophan; [6]) was 0.16 mg/kg.

With `O=c1[nH]c2ccccc2c(=O)n1CCN1CCCC(=C(c2ccc(F)cc2)c2ccc(F)cc2)CC1` [EXAMPLE 25, 3-{2-[4-[Bis(4-fluorophenyllmethylene]perhydroazepin-1-yl]ethyl}-2,4-dioxo-1,2,3,4-tetrahydrocuinazoline hydrochloride] the “ID50, inhibition” value (α1) was 3.05 mg/kg.

For `Fc1ccc(C(=C2CCN(CCCN3CCN(c4ncccn4)CC3)CC2)c2ccc(F)cc2)cc1` [EXAMPLE 7, 1-{3-[4-Bis(4-fluorophenyl)methylene]piperidino]propyl}-4-(2-pyrimidinyl)piperazine dihydrochloride], the ED50 (5-hydroxytryptophan; [7]) was 5 mg/kg, the ED50 (5-hydroxytryptophan; [8]) was greater than 10 mg/kg and the ED50 (5-hydroxytryptophan; [9]) was 5 mg/kg.

With `O=C1CN(Cc2ccccc2F)CC(=O)N1CCCN1CCC(C=C(c2ccc(F)cc2)c2ccc(F)cc2)C1` (centres unmarked) [EXAMPLE 8, 1-{3-[3-[2,2-bis(4-fluorophenyl)vinylene]-1-pyrrolidinyl]propyl}-4-(2-fluorobenzyl)-2,6-piperazinedione dihydrochloride] the “ID50, inhibition” value (α1) was 5.3 mg/kg.

In the case of `Cc1nc2c(C(N)=O)ncn2c(O)c1CCN1CCC(=C(c2ccccc2)c2ccc(F)cc2)CC1.Cl` [EXAMPLE 3, 8-Carbamoyl-3-{2-[4-[(4-fluorophenyl)phenylmethylene]piperidino]ethyl}-4-hydroxy-2-methylimidazo[1,5-a]-pyrimidine hydrochloride], the ED50 (5-HT2) was 0.024 mg/kg, the “ID50, inhibition” value (α1) was greater than 5 mg/kg and the ED50 (5-hydroxytryptophan; [7]) was 10 mg/kg. The ED50 (5-hydroxytryptophan; [9]) was 10 mg/kg.

With `Cc1nc2c(C(N)=O)ncn2c(O)c1CCN1CCCC(C=C(c2ccc(F)cc2)c2ccc(F)cc2)C1` (centres unmarked) [EXAMPLE 23, 3-{2-[3-[2,2-Bis(4-fluorophenyl)vinylene]piperidino]ethyl}-8-carbamoyl-4-hydroxy-2-methylimidazo[1,5-a]-pyrimidinehydrochloride] the “ID50, inhibition” value (α1) was greater than 5 mg/kg.

`Cc1nc2c(C(N)=O)ncn2c(O)c1CCCN1CCC(=C(c2ccccc2)c2ccc(F)cc2)CC1.Cl` [EXAMPLE 9, 8-Carbamoyl-3-{3-[4-[(4-fluorophenyl)phenylmethylene]piperidino]propyl}-4-hydroxy-2-methylimidazo[1,5-a]-pyrimidine hydrochloride] was tested, and the “ID50, inhibition” value (α1) was greater than 5 mg/kg.

`Cl.O=C1CN(Cc2ccccc2F)CC(=O)N1CCCN1CCC(=C(c2ccccc2)c2ccc(F)cc2)CC1` [EXAMPLE 5, 4-(2-Fluorobenzyl)-1-{3-[4-[(4-fluorophenyl)phenylmethylene]piperidino]propyl}-2,6-piperazinedione hydrochloride] gave an ED50 (5-HT2) of 0.034 mg/kg.

`O=C1CN(Cc2ccccc2F)CC(=O)N1CCCN1CCC(=C2c3ccccc3-c3ccccc32)CC1` [EXAMPLE 6, 1-{3-[4-(9-Fluorenylidenyl)piperidino]propyl}-4-(2-fluorobenzyl)-2,6-piperazinedione hydrochloride] showed an ED50 (5-HT2) of 0.039 mg/kg, an ED50 (5-hydroxytryptophan; [4]) of 5 mg/kg and an ED50 (5-hydroxytryptophan; [6]) of 2.5 mg/kg.

`Cc1nc2c(C#N)ncn2c(O)c1CCN1CCC(=C(c2ccc(F)cc2)c2ccc(F)cc2)CC1` [EXAMPLE 11, 3-{2-[4-Bis(4-fluorophenyl)methylene]piperidino]ethyl}-8-cyano-4-hydroxy-2-methylimidazo[1,5-a]-pyrimidine hydrochloride] was tested, and the “ID50, inhibition” value (α1) was greater than 5 mg/kg, the ED50 (5-hydroxytryptophan; [4]) was 5 mg/kg and the ED50 (5-hydroxytryptophan; [5]) was 10 mg/kg. The ED50 (5-hydroxytryptophan; [6]) was 1.25 mg/kg.

With `Cc1nc2c(C(N)=O)ncn2c(O)c1CCN1CCC(C=C(c2ccc(F)cc2)c2ccc(F)cc2)C1` (centres unmarked) [EXAMPLE 24, 3-(3-4-2,2-Bis(4-fluorophenyl)vinyl]pyrrolidino]ethyl}-8-carbamoyl-4-hydroxy-2-methylimidazo[1,5-a]-pyrimidine hydrochloride] the “ID50, inhibition” value (α1) was greater than 5 mg/kg.

In the case of `Cc1ccc(C(=C2CCN(CCc3c(C)nc4c(C(N)=O)ncn4c3O)CC2)c2ccccc2)cc1.Cl` [EXAMPLE 13, 8-Carbamoyl-4-hydroxy-3-{2-[4-[(4-methylphenyl)-phenylmethylene]piperidino]ethyl}-2-methylimidazo[1,5-a]-pyrimidine hydrochloride], the ED50 (5-HT2) was 0.027 mg/kg and the “ID50, inhibition” value (α1) was 3.05 mg/kg.

In the case of `O=C1CN(Cc2ccccn2)CC(=O)N1CCCN1CCC(=C(c2ccccc2)c2ccc(F)cc2)CC1` [EXAMPLE 10, 1-{3-4-(4-Fluorophenyl)phenylmethylene]piperidino]propyl}-4-(2-pyridylmethyl)-2,6-piperazinedione dihydrochloride], the ED50 (5-HT2) was 0.0082 mg/kg, the ED50 (5-hydroxytryptophan; [7]) was 1.25 mg/kg and the ED50 (5-hydroxytryptophan; [8]) was 40 mg/kg. It also gave an ED50 (5-hydroxytryptophan; [9]) of 0.16 mg/kg.

For `Cl.Cl.O=C1CN2Cc3ccccc3CC2C(=O)N1CCN1CCC(=C(c2ccccc2)c2ccc(F)cc2)CC1` (centres unmarked) [EXAMPLE 2, 2-{2-[4-[(4-Fluorophenyl)phenylmethylene]piperidino]ethyl}-1,3,4,6,11,11a-hexahydro-1,3-dioxo-2H-pyrazino[1,2-b]-isoquinoline dihydrochloride], the ED50 (5-hydroxytryptophan; [1]) was 1.25 mg/kg, the ED50 (5-hydroxytryptophan; [2]) was 5 mg/kg and the ED50 (5-hydroxytryptophan; [3]) was 1.25 mg/kg.

With `Cc1nc2c(C#N)ncn2c(O)c1CCN1CCC(=C(c2ccccc2)c2ccc(F)cc2)CC1.Cl` [EXAMPLE 4, 8-Cyano-3-{2-[4-[(4-fluorophenyl)phenylmethylene]piperidino]ethyl}-4-hydroxy-2-methylimidazo[1,5-a]-pyrimidine hydrochloride] the “ID50, inhibition” value (α1) was greater than 5 mg/kg, the ED50 (5-hydroxytryptophan; [4]) was 1.25 mg/kg and the ED50 (5-hydroxytryptophan; [5]) was 10 mg/kg. It also gave an ED50 (5-hydroxytryptophan; [6]) of 1.25 mg/kg.

Source: US5028607A, “Bis(aryl)alkene compounds” (Adir et Compagnie, priority 1989, dated 1991)
